Laboratory results as given in patent US20150111896A1, “HEMATOPOIETIC PROTECTION AGAINST CHEMOTHERAPEUTIC COMPOUNDS USING SELECTIVE CYCLIN-DEPENDENT KINASE 4/6 INHIBITORS” (The University of North Carolina at Chapel Hill, priority 2008, published 2015).
Entries after “also recorded” stand apart in the source; their conditions may differ. Read-outs that look alike come from different tables or passages of the source.

Columns and labels:
[1] = tested on: telomerized human diploid fibroblast (tHDF) cells (HS68); test: Cell cycle analysis (BrdU and propidium iodide, flow cytometry); assay type: cell-based; settings: HS68 (CDK4/6-dependent), 24 hours treatment
Protocol: (§1) Cells were cultured in DMEM+10% FBS.
(§2) Cell cycle analysis: Cell cycle analysis was performed using BrdU and propidium iodide (both from BD Biosciences Pharmigen, San Jose, Calif., United States of America) following the manufacturer's protocol. Cells were treated for 24 hours with a test compound at a desired dose prior to 15 minutes BrdU pulse, cell harvesting, fixation, staining, and analysis by flow cytometry.
(§3) Histograms of dose-response curves of PD332991 and 2BrIC in HS68, WM2664 and A2058 cells were analyzed using Mod-Fit™ software from Verity Software House (Topsham, Me., United States of America).

[2] = tested on: human melanoma cells lacking INK4a/ARF (WM2664); test: as above; assay type: cell-based; settings: WM2664 (CDK4/6-dependent), 24 hours treatment
Protocol: as §1, §2, §3

[3] = tested on: mice exposed to chemotherapeutic agents; test: Myelosuppression assay: weekly complete blood counts; assay type: in vivo; settings: 150 mg/kg oral gavage, Carbo 100 mg/kg i.p., blood on sixth day
Protocol: PD0332991: In the carboplatin experiments, mice were treated with a single dose of PD0332991 150 mg/kg oral gavage or vehicle control followed by carboplatin 100 mg/kg IP injection. In the doxorubicin experiments, mice were treated with a PD0332991 150 mg/kg by oral gavage or vehicle control one hour before doxorubicin 10 mg/kg by IP injection on day 0 and then repeated on day 7.
2BrIC: Mice were treated with a single dose of carboplatin 100 mg/kg by IP injection and two doses of 2BrIC 150mg/kg oral gavage or vehicle control. Mice were pretreated with 2BrIC two hours prior to carboplatin administration and then readministered a second dose of 2BrIC at the time of the carboplatin injection.
Baseline complete blood count (CBC) analysis were performed on a subset of mice prior to drug administration. Following drug administration (chemotherapy+/−indicated CDK4/6 inhibitor or control), mice were monitored weekly for the presence of myelosuppression by CBC analysis. CBC analysis was performed using BD Microtainer tubes with K2E (K2EDTA), 40 μL of blood was collected by tail vein nick. Blood was analyzed using a HESKA CBC-Diff Veterinary Hematology System. CBC analysis included measurement of white blood cells, lymphocytes, granulocytes, monocytes, hematocrit, red blood cells, hemoglobin, platelets, and other common hematological parameters.

[4] = tested on: hematopoietic stem and progenitor cells (HSPC); test: In vivo pharmacodynamic assay (BrdU incorporation, Ki67) in bone marrow; set-up: species or system mice; settings: two doses 300 mg/kg oral gavage, 2 hours prior to and at BrdU injection; relative to formulation alone; 300 mg/kg
Protocol: PD0332991: For HSPC proliferation experiments, mice received daily oral gavage with PD0332991 150 mg/kg for 2 days with 1 mg BrdU intraperitoneal injection (i.p.) every 6 hours for 24 hours prior to sacrifice.
2BrIC: For HSPC proliferation experiments, mice were treated with two doses of 2-bromo-12,13-dihydro-5H-indolo[2,3-a]pyrrolo[3,4-c]carbazole-5,7(6H)-dione (2BrIC) 300 mg/kg oral gavage or vehicle control. 2BrIC was solubilized for oral gavage using formulation #6 from the Hot Rod formulation kit (Pharmatek, Inc., San Diego, Calif., United States of America). 2BrIC was administered 2 hours prior to BrdU administration and readministered at the time of the BrdU 1 mg i.p. injection. After BrdU+/−2BrIC treatment for the indicated times, the mice were sacrificed and bone marrow harvested for immunophenotyping, and BrdU analysis.
Bone marrow (BM) was harvested from femurs of mice, pooled, and centrifuged to purify bone marrow mononuclear cells (BM-MNCs). Cells were then incubated for 5 minutes in ACK buffer to lyse red blood cells. All antibodies were from BD Pharmingen (San Jose, Calif., United States of America) unless otherwise indicated. Purified BM-MNCs were incubated with mouse lineage mixture biotin conjugated antibody, followed by streptavidin-FITC. Cells were then stained with Sca-1-PE-Cy7 and c-kit-APC-alexa750 antibodies. Cell viability was assessed using LIVE/DEAD Aqua Dead Cell Stain Kit (Invitrogen Corporation, Carlsbad, Calif., United States of America). For BrdU incorporation assay, the cells were fixed, permeablized, and stained with an APC BrdU Flow Kit according to the manufacturer's instruction. In all experiments, PE-Cy7, FITC, APC-alexa750, and the Aqua Dead cell stain isotype controls were included as appropriate. Flow cytometric analysis was performed using a CyAn ADP (Dako, Glostrup, Denmark). For each sample, a minimum of 500,000 cells was analyzed and the data were analyzed using FlowJo software (Tree Star, Ashland, Oreg., United States of America).

[5] = tested on: human RB-null melanoma cells (A2058); test: Cell proliferation assay (WST-1 or CellTiter-Glo) after chemotherapeutic; settings: for protection from chemotherapy-induced cytotoxicity (cell proliferation assays): A2058 (CDK4/6-independent), pretreatment prior to carboplatin, etoposide or doxorubicin
Protocol: (§7) In some embodiments, cell viability is assessed by performing a assay using 2-(4-iodophenyl)-3-(4-nitrophenyl)-5-(2,4-disulfophenyl)-2H-tetrazolium monosodium salt (WST-1), such as described further hereinbelow. In the WST-1 assay, WST-1 is cleaved by a mitochondrial reductase present in viable cells to form a colored product (i.e., formazan) that can be detected by measuring absorbance at a particular wavelength (e.g., 420-480 nm). […] The CellTiter-Glo® assay (CTG assay; Promega, Madison, Wis., United States of America) measures cell viability by measuring ATP concentration in cell lysate.
(§8) Cell lines: Telomerized human diploid fibroblast (tHDF) cells (HS68) were cultured in Dulbecco's Modified Eagle Medium (DMEM) +10% fetal bovine serum (FBS) with any additional compounds. The same conditions were used for A2058 and WM2664, human melanoma cell lines with known RB-pathway mutations: A2058 is RB-null, whereas WM2664 lacks INK4a/ARF. Thus, A2058 cells are CDK4/6-independent, while WM2664 cells are CDK4/6-dependent. Cells were cultured in DMEM+10% FBS.
(§9) Cell proliferation assays: Cell proliferation assays were performed by seeding 1×10^3 cells per well in a 96-well tissue culture plate in 100 μL of growth medium. Cells were treated as indicated with compound from Table 1 and doxorubicin, etoposide or carboplatin. Following treatment, cells were allowed to recover for 7 days in normal growth medium. At the end of the recovery period, cell number was quantified using the VVST-1 cell proliferation assay (TaKaRa Bio USA, Madison, Wis., United States of America) or the CellTiter-Glo® assay (CTG; Promega, Madison, Wis., United States of America). Data is presented as absorbance at 450 nm for the WST assays or Relative Light Units (RLU) for the CTG assays.

[6] = tested on: telomerized human diploid fibroblast (tHDF) cells (HS68); test: γH2AX assay (DNA damage, flow cytometry); assay type: cell-based; settings: 16 hours pretreatment, then 8 hours Carbo, Etop or Dox
Text: (§4) Reduction in DNA damage effected by the test compound or maintenance of cell viability effected by the test compound in cells treated with cytotoxic compounds can be assessed in any suitable manner. For example, DNA damage in cell populations can be assessed by performing a gamma-H2AX assay as described further herein below. Mammalian cells respond to agents that introduce DNA double-stranded breaks with the immediate and substantial phosphorylation of histone H2AX. Thus, detection of the phosphorylated H2AX, termed gamma-H2AX (γH2AX), using commercially available antibodies, can serve as a measure of DNA damage in cells.
as §1
(§5) γH2AX assay: For γH2AX assay, cells were treated with a dose response of PD332991 or 2BrIC for 24 hours. Cells were fixed, permeabilized, and stained with anti-γH2AX antibody as per γH2AX Flow Kit (Millipore, Billerica, Mass., United States of America). γH2AX levels were assessed by flow cytometry.

[7] = tested on: human RB-null melanoma cells (A2058); test: γH2AX assay (DNA damage, flow cytometry); assay type: cell-based; settings: 16 hours pretreatment, then 8 hours Carbo, Etop or Dox
Text: as §4, §1, §5

[8] = tested on: human melanoma cells lacking INK4a/ARF (WM2664); test: γH2AX assay (DNA damage, flow cytometry); assay type: cell-based; settings: 16 hours pretreatment; for protection from doxorubicin-, carboplatin- or etoposide-induced DNA damage (gamma-H2AX): then 8 hours Carbo, Etop or Dox
Text: as §4, §1, §5

[9] = tested on: human melanoma cells lacking INK4a/ARF (WM2664); test: Cell proliferation assay (WST-1 or CellTiter-Glo) after chemotherapeutic; settings: for protection from chemotherapy-induced cytotoxicity (cell proliferation assays): WM2664 (CDK4/6-dependent), pretreatment prior to carboplatin, etoposide or doxorubicin
Protocol: as §7, §8, §9

[10] = tested on: telomerized human diploid fibroblast (tHDF) cells (HS68); test: as above; settings: for chemoprotective effects against doxorubicin, carboplatin, etoposide (cell viability, CellTiter-Glo): 16 hour pretreatment, DOX 122 nM, Carbo 50 μM or Etop 2.5 μM 8 hours
Protocol: as §7, §8, §9

[11] = tested on: human RB-null melanoma cells (A2058); test: Cell cycle analysis (BrdU and propidium iodide, flow cytometry); assay type: cell-based; settings: A2058 (RB-null, CDK4/6-independent), 24 hours treatment
Protocol: as §1, §2, §3

[12] = tested on: telomerized human diploid fibroblast (tHDF) cells (HS68)
Protocol: as §7, §8, §9

HS68 cells = test: TOXILIGHT assay (adenylate kinase release); assay type: cell-based, human; settings: pretreatment, then Carbo 50 μM, DOX 122 nM or Etop 2.5 μM 8 hours
Protocol: (§6) Cellular cytotoxicity was assessed using the TOXILIGHT™ Bioassay kit (Lonza, Basel, Switzerland) which measures cytolysis by quantifying the release of adenylate kinase into the culture media. […] 100 μL of TOXILIGHT™ reagent is added and incubated for 5 minutes and read in a luminometer at 1 second/well.

[13] = tested on: RB-null human melanoma cells (A2058); test: TOXILIGHT assay (adenylate kinase release); assay type: cell-based; settings: 16 hours treatment, then Carbo 50 μM, DOX 122 nM or Etop 2.5 μM 8 hours
Protocol: as §6

[14] = tested on: human melanoma cells lacking INK4a/ARF (WM2664); test: TOXILIGHT assay (adenylate kinase release); assay type: cell-based; settings: 16 hours treatment, then Carbo 50 μM, DOX 122 nM or Etop 2.5 μM 8 hours
Protocol: as §6

Structure (SMILES): O=C1NC(=O)c2c1c1c3ccccc3[nH]c1c1[nH]c3cc(Br)ccc3c21 [Compound 2BrIC, 2-bromo-12,13-dihydro-5H-indolo[2,3-a]pyrrolo[3,4]-carbazole-5,6-dione]
- cell cycle effect [1]: strong, clean and reversible G1-arrest
- cell cycle effect [2]: strong, clean and reversible G1-arrest
- protection of blood cell counts from carboplatin [3]: provides protection of red blood cells and hemoglobin
- incorporation of BrdU into Lin−Kit+Sca1+ cells (MPP) [4]: inhibited; also recorded: clearly reducing proliferation
- protection from chemotherapy-induced cytotoxicity (cell proliferation assays) [5]: not
- protection from doxorubicin-induced cytotoxicity (cell viability, WST-1 assay) ([5]; A2058, absorbance at 450 nm, 7 days recovery): inability
- protection from doxorubicin-, carboplatin- or etoposide-induced DNA damage (gamma-H2AX) [6]: attenuated γH2AX staining; also recorded: ability
- protection from doxorubicin-, carboplatin- or etoposide-induced DNA damage (gamma-H2AX) [7]: inability
- protection from doxorubicin-, carboplatin- or etoposide-induced DNA damage (gamma-H2AX) [8]: attenuated γH2AX staining
- protection from carboplatin-induced DNA damage (gamma-H2AX positive cells) ([8]; then 8 hours carboplatin): ability
- protection from doxorubicin-induced DNA damage (gamma-H2AX positive cells) ([8]; then 8 hours doxorubicin): ability
- protection from etoposide-induced DNA damage (gamma-H2AX positive cells) ([8]; then 8 hours etoposide): ability
- protection from chemotherapy-induced cytotoxicity (cell proliferation assays) [9]: significant protection
- protection from chemotherapy-induced cytotoxicity (cell proliferation assays) ([10]; HS68 (CDK4/6-dependent), pretreatment prior to carboplatin, etoposide or doxorubicin): significant protection

Structure (SMILES): CCC(CO)Nc1nc(NCc2ccccc2)c2ncn(C(C)C)c2n1 (stereo not drawn) [Roscovitine]
- cell cycle effect [1]: does not induce G1 arrest
- cell cycle effect ([1]; listed as roscovitine): did not induce a clean G1 arrest
- cell cycle effect [11]: did not induce a clean G1 arrest
- cell cycle effect [2]: does not induce G1 arrest
- cell cycle effect ([2]; listed as roscovitine): did not induce a clean G1 arrest
- protection from chemotherapy-induced cytotoxicity (cell proliferation assays) [5]: failed to protect
- chemoprotective effects against doxorubicin (cell viability, CellTiter-Glo) ([5]; A2058, 16 hours pretreatment, DOX 370 nM 8 hours, viability after 7 days): absence of chemoprotective effects
- protection from chemotherapy-induced cytotoxicity (cell proliferation assays) [9]: failed to protect
- chemoprotective effects against doxorubicin (cell viability, CellTiter-Glo) ([9]; WM2664, 16 hours pretreatment, DOX 122 nM 8 hours, viability after 7 days): absence of chemoprotective effects
- chemoprotective effects against doxorubicin (cell viability, CellTiter-Glo) ([10]; HS68, 16 hours pretreatment, DOX 370 nM 8 hours, viability after 7 days): absence of chemoprotective effects
- protection from chemotherapy-induced cytotoxicity (cell proliferation assays) [12]: failed to protect

Structure (SMILES): CN[C@@H]1C[C@H]2O[C@@](C)([C@@H]1OC)n1c3ccccc3c3c4c(c5c6ccccc6n2c5c31)C(=O)NC4 [staurosporine]
- cell cycle effect [1]: substantially pure G1 arrest
- cell cycle effect ([1]; listed as Staurosporine): appears to induce G1 cell cycle arrest
- effect on chemotherapy-induced cytotoxicity (adenylate kinase release) (HS68 cells): enhances chemotherapy-induced cytotoxicity in a cyclin-dependent kinase 4/6 (CDK4/6)-independent manner
- effect on chemotherapy-induced cytotoxicity (adenylate kinase release) [13]: enhances chemotherapy-induced cytotoxicity in a cyclin-dependent kinase 4/6 (CDK4/6)-independent manner
- effect on chemotherapy-induced cytotoxicity (adenylate kinase release) [14]: enhances chemotherapy-induced cytotoxicity in a cyclin-dependent kinase 4/6 (CDK4/6)-independent manner
- protection from doxorubicin-, carboplatin- or etoposide-induced DNA damage (gamma-H2AX) [6]: does not protect
- protection from doxorubicin-, carboplatin- or etoposide-induced DNA damage (gamma-H2AX) ([6]; listed as Staurosporine): does not appear to protect
- protection from doxorubicin-, carboplatin- or etoposide-induced DNA damage (gamma-H2AX) [8]: does not protect
- protection from doxorubicin-, carboplatin- or etoposide-induced DNA damage (gamma-H2AX) ([8]; listed as Staurosporine): does not appear to protect
- chemoprotective effects against doxorubicin, carboplatin, etoposide (cell viability, CellTiter-Glo) ([10]; HS68, viability after 7 days): does not provide protection
- chemoprotective effects against doxorubicin, carboplatin, etoposide (cell viability, CellTiter-Glo) ([10]; HS68, viability after 7 days, listed as Staurosporine): does not appear to protect
